Laboratory results taken from paper PMC6375636, “Monotherapy with a low-dose lipopeptide HIV fusion inhibitor maintains long-term viral suppression in rhesus macaques” (PLoS Pathogens, 2019).
Read-outs that look alike come from different tables or passages of the source. Peptide text beside a SMILES is read from it. * marks the point of attachment. Stearoyl = CCCCCCCCCCCCCCCCCC(=O)*; Palmitoyl = CCCCCCCCCCCCCCCC(=O)*

Columns and labels:
Assay type in all cases: cell-based
[1] = system: HIV-1NL4-3(D36G) pseudovirus
Procedure: The inhibitory activities of inhibitors against HIV-1 pseudoviruses and replication-competent isolates were measured as described previously. Briefly, HIV-1 pseudoviruses were generated via the cotransfection of HEK293T cells with an Env-expressing plasmid and a backbone plasmid that encodes Env-defective, luciferase-expressing HIV-1 genome (pSG3Δenv). Viral stocks of replication-competent HIV-1 isolates were generated by transfecting viral molecular clones into HEK293T cells. […] Inhibitors were prepared in 3-fold dilutions, mixed with 100 TCID50 of a virus, and then incubated for 1 h at room temperature. […] Luciferase activity was measured as described above.

HIV-1 CH040.c/2625 = conditions: Table 2; CH040.c/2625, subtype B, R5; mean ± SD of 3 assays in triplicate
Method in brief: (§1)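 Luciferase in TZM-bl cells was the read-out. Cells (10^4/well) received virus–inhibitor mixtures (100 TCID50, 3-fold serial dilutions, 1 h room-temperature preincubation) and were cultured 48 h at 37°C. Pseudovirus came from HEK293T cotransfection with Env plasmid plus pSG3Δenv; replication-competent clones were transfected alone.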

HIV-1 LAI = conditions: Table 2, subtype B, X4, mean ± SD of 3 assays in triplicate
Method in brief: as §1

HIV-1 RHPA.c/2635 = conditions: Table 2; RHPA.c/2635, subtype B, R5; mean ± SD of 3 assays in triplicate
Method in brief: as §1

HIV-1 SG3 = conditions: Table 2; SG3, subtype B, X4; mean ± SD of 3 assays in triplicate
Method in brief: as §1

HIV-1 THRO.c/2626 = conditions: Table 2; THRO.c/2626, subtype B, R5; mean ± SD of 3 assays in triplicate
Method in brief: as §1

[2] = system: HIV-1 pseudovirus, primary Env AC10.0.29; conditions: Env AC10.0.29, subtype B; mean ± SD of 3 assays in triplicate
Method in brief: as §1

[3] = system: HIV-1 pseudovirus, primary Env AE03; conditions: Env AE03, subtype A/E; mean ± SD of 3 assays in triplicate
Method in brief: as §1

[4] = system: HIV-1 pseudovirus, primary Env B01; conditions: Env B01, subtype B'; mean ± SD of 3 assays in triplicate
Method in brief: as §1

[5] = system: HIV-1 pseudovirus, primary Env B04; conditions: Env B04, subtype B'; mean ± SD of 3 assays in triplicate
Method in brief: as §1

[6] = system: HIV-1 pseudovirus, primary Env CAP45.2.00.G3; conditions: Env CAP45.2.00.G3, subtype C; mean ± SD of 3 assays in triplicate
Method in brief: as §1

[7] = system: HIV-1 pseudovirus, primary Env CE1176_A3; conditions: Env CE1176_A3, subtype C; mean ± SD of 3 assays in triplicate
Method in brief: as §1

[8] = system: HIV-1 pseudovirus, primary Env CH070.1; conditions: Env CH070.1, subtype B/C; mean ± SD of 3 assays in triplicate
Method in brief: as §1

[9] = system: HIV-1 pseudovirus, primary Env CH64.20; conditions: Env CH64.20, subtype B/C; mean ± SD of 3 assays in triplicate
Method in brief: as §1

[10] = system: HIV-1 pseudovirus, primary Env CNE55; conditions: Env CNE55, subtype A/E; mean ± SD of 3 assays in triplicate
Method in brief: as §1

[11] = system: HIV-1 pseudovirus, primary Env CNE8; conditions: Env CNE8, subtype A/E; mean ± SD of 3 assays in triplicate
Method in brief: as §1

[12] = system: HIV-1 pseudovirus, primary Env HIV_25710–2.43; conditions: Env HIV_25710–2.43, subtype C; mean ± SD of 3 assays in triplicate
Method in brief: as §1

[13] = system: HIV-1 pseudovirus, primary Env PVO; conditions: subtype B, mean ± SD of 3 assays in triplicate
Method in brief: as §1

[14] = system: HIV-1 pseudovirus, primary Env R3A; conditions: subtype B, mean ± SD of 3 assays in triplicate
Method in brief: as §1

[15] = system: HIV-1 pseudovirus, primary Env SHX335.24; conditions: Env SHX335.24, subtype A/E; mean ± SD of 3 assays in triplicate
Method in brief: as §1

[16] = system: HIV-1 pseudovirus, primary Env ZM53M.PB12; conditions: Env ZM53M.PB12, subtype C; mean ± SD of 3 assays in triplicate
Method in brief: as §1

[17] = system: HIV-1 pseudovirus, primary Env pREJO4541; conditions: Env pREJO4541, subtype B; mean ± SD of 3 assays in triplicate
Method in brief: as §1

[18] = system: divergent HIV-1 subtypes (pseudoviruses with primary Envs); conditions: mean of the 36 pseudoviruses of Table 3; for VRC01 >300000 apparently counted as 300000; read-out: Mean IC50 over divergent HIV-1 subtypes
Method in brief: as §1

[19] = Fig 1, NL4-3(D36G) pseudovirus, mean ± SD of three assays in triplicate, read-out: Anti-HIV activity (IC50, pM) NL4-3 entry
[20] = Table 4, NL4-3D36G, T-20 sensitive, mean ± SD of 3 assays in triplicate, value in parentheses behind the bound, read-out: IC50

Row | Compound | IC50 [1, 19] [pM] | IC50 (HIV-1 CH040.c/2625) [pM] | IC50 (HIV-1 LAI) [pM] | IC50 (HIV-1 RHPA.c/2635) [pM] | IC50 (HIV-1 SG3) [pM] | IC50 (HIV-1 THRO.c/2626) [pM] | IC50 [2] [pM] | IC50 [3] [pM] | IC50 [4] [pM] | IC50 [5] [pM] | IC50 [6] [pM] | IC50 [7] [pM] | IC50 [8] [pM] | IC50 [9] [pM] | IC50 [10] [pM] | IC50 [11] [pM] | IC50 [12] [pM] | IC50 [13] [pM] | IC50 [15] [pM] | IC50 [16] [pM] | further results
1 | CCCCCCCCCCCCCCCC(=O)NCCCC[C@H](NC(=O)[C@H](CCC(=O)O)NC(=O)[C@H](CC(C)C)NC(=O)[C@H](CCCCN)NC(=O)[C@H](CCCCN)NC(=O)[C@H](CC(C)C)NC(=O)[C@H](CCC(=O)O)NC(=O)[C@H](CCC(=O)O)NC(=O)[C@H](CCC(=O)O)NC(=O)[C@H](CC(N)=O)NC(=O)[C@H](CCCCN)NC(=O)[C@H](CCCCN)NC(=O)[C@H](CCC(N)=O)NC(=O)[C@H](CCC(N)=O)NC(=O)[C@H](CCC(=O)O)NC(=O)[C@H](CCC(=O)O)NC(=O)[C@H](C)NC(=O)[C@H](CCCCN)NC(=O)[C@H](CCCCN)NC(=O)[C@H](CC(C)C)NC(=O)[C@H](CC(C)C)NC(=O)[C@H](CCC(=O)O)NC(=O)[C@H](CCC(=O)O)NC(=O)[C@@H](NC(=O)[C@H](CCCCN)NC(=O)[C@H](CCC(N)=O)NC(=O)[C@H](CCC(=O)O)NC(=O)[C@H](Cc1c[nH]c2ccccc12)NC(C)=O)[C@@H](C)CC)C(N)=O [LP-52, reference compound] (Ac-WEQKIEELLKKAEEQQKKNEEELKKLEK(Palmitoyl)-NH2) | 6.12 ± 0.25 | 66.7 ± 9.1 | 12.2 ± 0.93 | 9.42 ± 1.34 | 5.22 ± 1.89 | 27.1 ± 4.61 | 9.71 ± 0.81 | 10.9 ± 1.89 | 7.06 ± 1.16 | 13.4 ± 0.94 | 7.58 ± 0.64 | 11.1 ± 1.52 | 27.6 ± 3.33 | 9.71 ± 0.84 | 17.3 ± 1.41 | 4.97 ± 1.31 | 14.1 ± 1.91 | 29.7 ± 7.83 | 18.9 ± 0.34 | 26.9 ± 3.04 | IC50 [14]: 9.22 ± 1.9 pM; IC50 [17]: 7.22 ± 0.85 pM; IC50 [18]: 17 pM
2 | CCCCCCCCCCCCCCCCCC(=O)NCCCC[C@H](NC(=O)[C@H](CCC(=O)O)NC(=O)[C@H](CC(C)C)NC(=O)[C@H](CCCCN)NC(=O)[C@H](CCCCN)NC(=O)[C@H](CC(C)C)NC(=O)[C@H](CCC(=O)O)NC(=O)[C@H](CCC(=O)O)NC(=O)[C@H](CCC(=O)O)NC(=O)[C@H](CC(N)=O)NC(=O)[C@H](CCCCN)NC(=O)[C@H](CCCCN)NC(=O)[C@H](CCC(N)=O)NC(=O)[C@H](CCC(N)=O)NC(=O)[C@H](CCC(=O)O)NC(=O)[C@H](CCC(=O)O)NC(=O)[C@H](C)NC(=O)[C@H](CCCCN)NC(=O)[C@H](CCCCN)NC(=O)[C@H](CC(C)C)NC(=O)[C@H](CC(C)C)NC(=O)[C@H](CCC(=O)O)NC(=O)[C@H](CCC(=O)O)NC(=O)[C@@H](NC(=O)[C@H](CCCCN)NC(=O)[C@H](CCC(N)=O)NC(=O)[C@H](CCC(=O)O)NC(=O)[C@H](Cc1c[nH]c2ccccc12)NC(C)=O)[C@@H](C)CC)C(N)=O [LP-80] (Ac-WEQKIEELLKKAEEQQKKNEEELKKLEK(Stearoyl)-NH2) | 1.62 | 22.7 ± 5.55 | 5.85 ± 0.86 | 4.81 ± 1.98 | 1.8 ± 0.42 | 14.9 ± 1.93 | 5.01 ± 0.93 | 3.44 ± 0.83 | 3.49 ± 0.4 | 3.81 ± 1.08 | 1.69 ± 0.48 | 2.94 ± 0.19 | 28.5 ± 0.63 | 5.75 ± 0.19 | 1.11 ± 0.18 | 3.56 ± 0.7 | 3.2 ± 0.68 | 13 ± 1.67 | 2.83 ± 0.66 | 8.62 ± 0.74 | IC50 [1, 20]: < 10 pM; IC50 [14]: 6.34 ± 0.65 pM; IC50 [17]: 1.4 ± 0.61 pM; IC50 [18]: 5.58 pM
3 | CCCCCCCCCCCCCCCCCC(=O)NCCCC[C@H](NC(=O)[C@H](CCC(=O)O)NC(=O)[C@H](CC(C)C)NC(=O)[C@H](CCCCN)NC(=O)[C@H](CCCCN)NC(=O)[C@H](CC(C)C)NC(=O)[C@H](CCC(=O)O)NC(=O)[C@H](CCC(=O)O)NC(=O)[C@H](CCC(=O)O)NC(=O)[C@H](CC(N)=O)NC(=O)[C@H](CCCCN)NC(=O)[C@H](CCCCN)NC(=O)[C@H](CCC(N)=O)NC(=O)[C@H](CCC(N)=O)NC(=O)[C@H](CCC(=O)O)NC(=O)[C@H](CCC(=O)O)NC(=O)[C@H](C)NC(=O)[C@H](CCCCN)NC(=O)[C@H](CCCCN)NC(=O)[C@H](CC(C)C)NC(=O)[C@H](CC(C)C)NC(=O)[C@H](CCC(=O)O)NC(=O)[C@H](CCC(=O)O)NC(=O)[C@@H](NC(C)=O)[C@@H](C)CC)C(N)=O [LP-90] (Ac-IEELLKKAEEQQKKNEEELKKLEK(Stearoyl)-NH2) | 3.55 | 50.2 ± 13.8 | 8.34 ± 1.54 | 5.36 ± 1.66 | 1.67 ± 0.61 | 14.6 ± 2.24 | 4.42 ± 0.28 | 14.1 ± 4.17 | 17.9 ± 1.58 | 17.5 ± 7.72 | 2.14 ± 0.13 | 8.77 ± 1.95 | 31.7 ± 2.04 | 7.72 ± 2.67 | 2.54 ± 0.89 | 22.5 ± 2.6 | 16 ± 2.93 | 22.6 ± 4.7 | 3.01 ± 0.2 | 8.81 ± 0.46 | IC50 [1, 20]: < 10 pM; IC50 [17]: 15.9 ± 3.13 pM; IC50 [18]: 13.4 pM
4 | enfuvirtide [Lipopeptide T-20, reference compound] | 8560 ± 1050 | 30900 ± 3810 | 1160 ± 103 | 6520 ± 1330 | 2850 ± 227 | 31300 ± 2390 | 2840 ± 103 | 12380 ± 109 | 84400 ± 3690 | 5650 ± 366 | 13600 ± 2040 | 8400 ± 496 | 165000 ± 28300 | 33300 ± 1180 | 25100 ± 2330 | 24800 ± 1880 | 13700 ± 1850 | 69700 ± 698 | 40600 ± 1420 | 22700 ± 943 | IC50 [1, 20]: 8770 ± 1020 pM; IC50 [14]: 6880 ± 1120 pM; IC50 [17]: 55000 ± 2900 pM; IC50 [18]: 30000 pM
